Reference: ChEMBL document CHEMBL4732050, “1,2,4-Oxadiazole topsentin analogs as staphylococcal biofilm inhibitors targeting the bacterial transpeptidase sortase A” (Eur J Med Chem, 2021)

Assays:
[1] = test system: Escherichia coli; assay: Antibacterial activity against Escherichia coli ATCC 25922 after 24 hrs by microdilution method; assay type: functional
[2] = test system: HS27; assay: Cytotoxicity against human Hs27 cells assessed as cell viability at 0.1 to 1 uM after 72 hrs by SRB assay; assay type: cell-based; conditions: hs27, 72 h, dose 0.1-1 µM
[3] = test system: Pseudomonas aeruginosa; assay: Antibiofilm activity against Pseudomonas aeruginosa ATCC 15442 after 24 hrs by crystal violet staining based assay; assay type: functional
[4] = test system: Escherichia coli; assay: Antibiofilm activity against Escherichia coli ATCC 25922 at 100 ug/ml after 24 hrs by crystal violet staining based assay; assay type: functional
[5] = test system: Staphylococcus aureus; assay: Antibacterial activity against Staphylococcus aureus ATCC 25923 after 24 hrs by microdilution method; assay type: functional
[6] = Inhibition of Staphylococcus aureus ATCC 25923 sortase A by FRET assay
[7] = test system: Staphylococcus aureus; assay: Antibiofilm activity against Staphylococcus aureus ATCC 25923 after 24 hrs by crystal violet staining based assay; assay type: functional
[8] = test system: Pseudomonas aeruginosa; assay: Antibacterial activity against Pseudomonas aeruginosa ATCC 15442 after 24 hrs by microdilution method; assay type: functional
[9] = test system: Staphylococcus aureus; assay: Antibacterial activity against Staphylococcus aureus ATCC 6538 after 24 hrs by microdilution method; assay type: functional
[10] = test system: Staphylococcus aureus; assay: Antibiofilm activity against Staphylococcus aureus ATCC 6538 at 100 ug/ml after 24 hrs by crystal violet staining based assay; assay type: functional
[11] = test system: Escherichia coli; assay: Antibiofilm activity against Escherichia coli ATCC 25922 after 24 hrs by crystal violet staining based assay; assay type: functional
[12] = test system: Staphylococcus aureus; assay: Antibiofilm activity against Staphylococcus aureus ATCC 25923 at 100 ug/ml after 24 hrs by crystal violet staining based assay; assay type: functional
[13] = test system: Staphylococcus aureus; assay: Antibiofilm activity against Staphylococcus aureus ATCC 6538 after 24 hrs by crystal violet staining based assay; assay type: functional
[14] = test system: Pseudomonas aeruginosa; assay: Antibiofilm activity against Pseudomonas aeruginosa ATCC 15442 at 100 ug/ml after 24 hrs by crystal violet staining based assay; assay type: functional

Row | Structure (SMILES) | MIC [1] [µg/mL] | MIC [5] [µg/mL] | IC50 [6] [nM] | MIC [8] [µg/mL] | MIC [9] [µg/mL] | Activity [2] | MBIC50 [3] [µM] | inhibition at 100 µg/mL [4] [%] | MBIC50 [7] [µM] | inhibition at 100 µg/mL [10] [%] | MBIC50 [11] [µM] | inhibition at 100 µg/mL [12] [%] | MBIC50 [13] [µM] | inhibition at 100 µg/mL [14] [%]
1 | Cn1cc(C(=O)c2nc(-c3cn(C)c4ccc(F)cc34)no2)c2cc(F)ccc21 | > 100 | > 100 | 10400 | > 100 | > 100 | Non-Toxic | 49.7 | < 15 | 0.7 | < 15 | – | – | – | –
2 | Cn1cc(C(=O)c2nc(-c3cn(C)c4ccc(Cl)cc34)no2)c2cc(Br)ccc21 | > 100 | > 100 | – | > 100 | > 100 | – | 53.9 | < 15 | 27.7 | < 15 | – | – | – | –
3 | COc1ccc2c(c1)c(-c1noc(C(=O)c3cn(C)c4ccc(Br)cc34)n1)cn2C | > 100 | > 100 | – | > 100 | > 100 | – | 28.1 | < 15 | 19.1 | < 15 | – | – | – | –
4 | COc1ccc2c(c1)c(C(=O)c1nc(-c3cn(C)c4ccc(Br)cc34)no1)cn2C | > 100 | > 100 | – | > 100 | > 100 | – | – | < 15 | 41 | < 15 | – | – | – | < 15
5 | COc1ccc2c(c1)c(C(=O)c1nc(-c3cn(C)c4ccc(F)cc34)no1)cn2C | > 100 | > 100 | – | > 100 | > 100 | – | 11.6 | < 15 | 39.6 | < 15 | – | – | – | –
6 | Cn1cc(C(=O)c2nc(-c3cn(C)c4ccc(Br)cc34)no2)c2cc(F)ccc21 | > 100 | > 100 | 2200 | > 100 | > 100 | Non-Toxic | – | < 15 | 9.7 | < 15 | – | – | – | < 15
7 | COc1ccc2c(c1)c(C(=O)c1nc(-c3cn(C)c4ccc(OC)cc34)no1)cn2C | > 100 | > 100 | 2200 | > 100 | > 100 | Non-Toxic | 74.7 | < 15 | 2.2 | < 15 | – | – | – | –
8 | COc1ccc2c(c1)c(C(=O)c1nc(-c3cn(C)c4ccccc34)no1)cn2C | > 100 | > 100 | – | > 100 | > 100 | – | 30 | – | 33.1 | < 15 | 55.4 | – | – | –
9 | Cn1cc(C(=O)c2nc(-c3cn(C)c4ccc(F)cc34)no2)c2cc(Br)ccc21 | > 100 | > 100 | – | > 100 | > 100 | – | – | – | 29.6 | < 15 | 45.7 | – | – | < 15
10 | COc1ccc2c(c1)c(-c1noc(C(=O)c3cn(C)c4ccc(F)cc34)n1)cn2C | > 100 | > 100 | – | > 100 | > 100 | – | 52.1 | < 15 | 14.8 | < 15 | – | – | – | –
11 | COc1ccc2c(c1)c(C(=O)c1nc(-c3cn(C)c4ccc(Cl)cc34)no1)cn2C | > 100 | > 100 | – | > 100 | > 100 | – | – | < 15 | – | < 15 | – | < 15 | – | < 15

The next lines start with results.

Row | MIC [1] [µg/mL] | MIC [5] [µg/mL] | IC50 [6] [nM] | MIC [8] [µg/mL] | MIC [9] [µg/mL] | Structure (SMILES) | Activity [2] | MBIC50 [3] [µM] | inhibition at 100 µg/mL [4] [%] | MBIC50 [7] [µM] | inhibition at 100 µg/mL [10] [%] | MBIC50 [11] [µM] | inhibition at 100 µg/mL [12] [%] | MBIC50 [13] [µM] | inhibition at 100 µg/mL [14] [%]
12 | > 100 | > 100 | – | > 100 | > 100 | Cn1cc(C(=O)c2nc(-c3cn(C)c4ccccc34)no2)c2cc(Br)ccc21 | – | 39.3 | – | 39.5 | < 15 | 39.3 | – | – | –
13 | > 100 | > 100 | – | > 100 | > 100 | Cn1cc(C(=O)c2nc(-c3cn(C)c4ccc(Br)cc34)no2)c2ccccc21 | – | 78.6 | < 15 | – | < 15 | – | < 15 | – | –
14 | > 100 | > 100 | – | > 100 | > 100 | Cn1cc(C(=O)c2nc(-c3cn(C)c4ccccc34)no2)c2ccccc21 | – | 36.7 | – | 14 | – | 72.1 | – | 53.6 | –
15 | > 100 | > 100 | – | > 100 | > 100 | COc1ccc2c(c1)c(-c1noc(C(=O)c3cn(C)c4ccccc34)n1)cn2C | – | 47.4 | < 15 | – | < 15 | – | < 15 | – | –
16 | > 100 | > 100 | – | > 100 | > 100 | Cn1cc(C(=O)c2nc(-c3cn(C)c4ccc(F)cc34)no2)c2ccccc21 | – | 24 | < 15 | 30.4 | < 15 | – | – | – | –
17 | > 100 | > 100 | – | > 100 | > 100 | Cn1cc(C(=O)c2nc(-c3cn(C)c4ccc(Cl)cc34)no2)c2ccccc21 | – | 53.5 | – | 47.6 | < 15 | 59.6 | – | – | –
